Assay results taken from paper PMC5054363 (Scientific Reports, 2016).
*1 amine or outer side, *2 acyl side, *3 side chain or, on linkers, in order; H or OH if unused. Where a SMILES comes first, the peptide text is derived from it. Bridges are numbered along the chain shown (N, C = ends). [ ]: non-standard residue; d: D form. The star is where a group is joined. X1 = CC[C@H](C)[C@@H](N[*:1])[C@@H](O)CC(=O)O[C@H](C(=O)[C@H](C)C(=O)[*:2])C(C)C; NMeY = CN[C@@H](Cc1ccc(O)cc1)C(=O)O; dNMeL = CN[C@H](CC(C)C)C(=O)O; Pyruvoyl = CC(=O)C(=O)*

Tests used:
[1] = test system: subcellular and chromatographic fractions of K-562 cell lysate; experiment: Binding of [14C]-plitidepsin to K-562 lysate fractions; settings: 500 nM [14C]-plitidepsin with or without 10 μM unlabeled plitidepsin, 1 h, room temperature, subcellular fractions
Experimental: Figure 4 Identification of the plitidepsin-binding protein in a K-562 cells lysate. […] In the horizontal axis “P” and “S” mean “pellet” and “supernatant”, respectively, with the figure aside denoting the relative centrifugal force (in thousands of g) used to obtain such fraction. Data (in dpm per mg of protein) represent the mean of three independent samples with error bars showing S.D. * means p < 0.05. (C) Anion-exchange chromatography on DEAE, flow rate 5 mL/min. (D) Cation-exchange chromatography on SP, flow rate 2.5 mL/min. (E) Size exclusion chromatography on Superdex 200, flow rate 4 mL/min. Representative fractions (4-mL) from each portion of the eluates were analyzed for their binding to [^14C]-plitidepsin in the presence (grey bars, non-specific binding) or absence (black bars, total binding) of a 20-fold excess of unlabeled drug. Only fractions showing significant specific binding to the radioligand were pooled and progressed to the next chromatographic step. In all cases absorbance is expressed in mAU and conductivity in mS/cm.
The rest of the peptides detected in this material corresponded to fragments whose sequences are common to both isoforms, thus discarding the presence of any other protein.
After 1 h incubation at room temperature 400 μL of each tube were withdrawn and processed as described above.

[2] = molecular target: eEF1A1 purified from rabbit liver (Oryctolagus cuniculus, UniProt P68105); settings: saturation binding, [14C]-plitidepsin, 1 h, room temperature, triplicate, Swillens fit (Supplementary Figure 4)
Sequence of eEF1A1 purified from rabbit liver (P68105 whole entry, canonical isoform): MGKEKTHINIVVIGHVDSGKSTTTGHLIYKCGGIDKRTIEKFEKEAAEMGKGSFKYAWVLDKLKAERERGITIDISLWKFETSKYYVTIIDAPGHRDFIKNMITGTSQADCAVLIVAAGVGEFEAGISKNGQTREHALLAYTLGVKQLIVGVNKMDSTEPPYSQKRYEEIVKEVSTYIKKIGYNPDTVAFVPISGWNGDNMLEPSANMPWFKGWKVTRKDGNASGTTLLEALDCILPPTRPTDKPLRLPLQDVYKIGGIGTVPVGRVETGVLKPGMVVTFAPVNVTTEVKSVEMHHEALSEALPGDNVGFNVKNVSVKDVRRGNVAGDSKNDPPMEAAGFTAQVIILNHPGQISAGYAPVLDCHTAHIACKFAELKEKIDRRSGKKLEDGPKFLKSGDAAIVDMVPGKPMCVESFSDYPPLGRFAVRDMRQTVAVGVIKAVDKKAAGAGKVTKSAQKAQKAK
Experimental: All samples in binding assays were tested in triplicate. […] After 1 h incubation at room temperature, 450 μL were withdrawn, filtered through GF/C filters (Millipore, Bedford, CA) and washed three times with the same buffer used for the incubation. Filters were then removed, dried and their radioactivity was finally counted as a measurement of total (specific and non-specific) bound drug. […] Scintillation counting was transformed into concentration values considering the specific activity of the radioligand and the sample volume. The concentration of bound radioligand was related to the total amount of radioligand in the sample using the expression derived by Swillens[12] to account for ligand depletion when the concentration of protein was similar to that of radioligand:
was purified from rabbit liver as described in ( 48) . Protein and radioligand wer e
incubated for 1 h at room temperature and samples were processed as described in the

both eEF1A isoforms = settings: cited from earlier work
Text: (§1) Until now, very few chemical entities have been identified as modulators of eEF1A2. […] Other authors also reported the discovery of several flavonoids as well as phenanthridones (e.g ...

[3] = molecular target: EF1A isolated from rabbit reticulocytes; settings: cited from earlier work
Text: as §1

eEF1A-ribosome complex = settings: binding to the eEF1A-ribosome complex; cited from earlier work
Text: as §1

protein synthesis = settings: cited from earlier work

Molecule: CC[C@H](C)[C@H]1NC(=O)[C@@H](NC(=O)[C@@H](CC(C)C)N(C)C(=O)[C@@H]2CCCN2C(=O)C(C)=O)[C@@H](C)OC(=O)[C@H](Cc2ccc(OC)cc2)N(C)C(=O)[C@@H]2CCCN2C(=O)[C@H](CC(C)C)NC(=O)[C@@H](C)C(=O)[C@H](C(C)C)OC(=O)C[C@@H]1O [[^14C]-plitidepsin] (Pyruvoyl-P[dNMeL]T[X1]LP[NMeY](Me); ester 3-C (inferred))
- binding to pellets ([1]; pellets): non-specifically
- binding to soluble fractions ([1]; soluble): retained by the soluble fractions
- Kd [2]: 183 ± 32 nM

Molecule: O=C1N[C@@H]2C(=C[C@H](O)[C@@H](O)[C@H]2O)c2cc3c(c(O)c21)OCO3 [narciclasine]
- binding to eEF1A isoforms (both eEF1A isoforms): selectively bind to both eEF1A isoforms

Molecule: didemnin B
- Kd ([3]; binding to EF1A): 200 µM
- interaction with eEF1A ([3]; isoform not specified): interact with eEF1A
- Kd (eEF1A-ribosome complex): 4 µM
- protein synthesis inhibition (protein synthesis): only at μM concentrations

Molecule: O=C1N[C@H]2[C@H](O)[C@H](O)[C@@H](O)[C@H](O)[C@@H]2c2cc3c(c(O)c21)OCO3 [pancratistatine]
- binding to eEF1A isoforms (both eEF1A isoforms): selectively bind to both eEF1A isoforms
